One experiment concerns the target Mu-type opioid receptor (Rattus norvegicus, UniProt P33535). The experiment can be described thus: Binding affinity against mu-opioid receptor by using [3H]DAGO as radioligand in rat brain. The experiment is classed as tissue-based.
The species named for another experiment is Cavia porcellus. Nature of the experiment: In vitro bioactivity on electrically induced smooth muscle contraction of guinea pig ileum by GPI assay. It counts as functional.
The target of experiment [1] is Delta-type opioid receptor (Rattus norvegicus, UniProt P33533). Nature of the experiment: Binding affinity against delta-opioid receptor by using [3H]DADLE as radioligand in rat brain. The experiment is classed as tissue-based.
Chain of Delta-type opioid receptor (P33533 whole entry): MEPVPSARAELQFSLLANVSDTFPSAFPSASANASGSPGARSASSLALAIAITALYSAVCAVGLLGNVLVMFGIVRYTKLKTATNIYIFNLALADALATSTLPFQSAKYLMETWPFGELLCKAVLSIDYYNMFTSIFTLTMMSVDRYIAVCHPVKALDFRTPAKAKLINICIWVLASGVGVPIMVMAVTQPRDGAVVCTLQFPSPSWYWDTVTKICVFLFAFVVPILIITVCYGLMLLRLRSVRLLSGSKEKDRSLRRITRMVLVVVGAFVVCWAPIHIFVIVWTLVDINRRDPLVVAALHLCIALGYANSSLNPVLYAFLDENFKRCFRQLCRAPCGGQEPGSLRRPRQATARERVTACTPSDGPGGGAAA
The test system of experiment [2] is Mus musculus. Nature of the experiment: In vivo antinociceptive effect in mice by PBQ writhing test upon subcutaneous administration; Range is (0.52-0.741). The settings on record: sc. The experiment is classed as functional.
The test system of experiment [3] is Mus musculus. Nature of the experiment: In vivo antinociceptive effect in mice by PBQ writhing test upon subcutaneous administration; Range is (1.64-3.24). The experiment is classed as functional. To be noted: sc. On the technique in general: Writhing tests count abdominal constrictions after an irritant is injected.
Experiment [4] deals with Mus musculus. Nature of the experiment: In vivo antinociceptive effect in mice by PBQ writhing test upon subcutaneous administration; Range is (0.88-1.56). The experiment is classed as functional. To be noted: sc.
Experiment [5] concerns Mus musculus. Nature of the experiment: In vivo antinociceptive effect in mice by PBQ writhing test upon subcutaneous administration: Range is (0.39-0.59). It counts as functional. The settings on record: sc.

The source of these data is ChEMBL document CHEMBL1151084, “Synthesis and biological properties of quaternized N-methylation analogs of D-Arg-2-dermorphin tetrapeptide” (Bioorg Med Chem Lett, 1994).

pIC50, pKi: −log10 of the molar value. Where a SMILES comes first, the peptide text is derived from it. Where only a bound is given, the exact number is not on record here.

Chain of Mu-type opioid receptor (P33535 whole entry): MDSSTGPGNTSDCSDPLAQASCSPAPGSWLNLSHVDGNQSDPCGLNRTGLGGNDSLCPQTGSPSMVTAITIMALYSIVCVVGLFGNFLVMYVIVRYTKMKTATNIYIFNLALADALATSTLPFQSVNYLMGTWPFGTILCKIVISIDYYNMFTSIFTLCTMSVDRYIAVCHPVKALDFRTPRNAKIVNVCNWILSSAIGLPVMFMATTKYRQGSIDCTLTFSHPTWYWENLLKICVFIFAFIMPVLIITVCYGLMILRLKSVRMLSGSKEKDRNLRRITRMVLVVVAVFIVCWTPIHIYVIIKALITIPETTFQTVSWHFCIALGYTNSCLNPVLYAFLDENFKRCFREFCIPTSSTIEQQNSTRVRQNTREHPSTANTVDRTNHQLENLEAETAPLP

As a reminder, the pKi is the Ki on a negative log10 scale, so that one unit is a factor of ten. What is called pIC50 is −log10 of the IC50, conventionally taken in molar units. High values mean a small IC50, low ones a large IC50. Turning to `C[N+](C)(C)[C@@H](Cc1ccc(O)cc1)C(=O)N[C@H](CCCN=C(N)N)C(=O)N[C@@H](Cc1ccccc1)C(=O)N[C@@H](CCCN)C(N)=O`, the pKi at Mu-type opioid receptor was 5.72; in experiment [1], less than 4.00. Moreover, in the experiment filed under Cavia porcellus, the negative-log IC50 (pIC50) is less than 4.00.
By ED50 is commonly meant the dose at which the effect has come halfway, by size or by number of responders. Low readings indicate greater potency, high ones weaker potency. Take `NC(=O)[C@H](CCNC(=O)[C@H](Cc1ccccc1)NC(=O)[C@H](CCCN=C(N)N)NC(=O)[C@@H](N)Cc1ccc(O)cc1)NC(=O)[C@H](Cc1ccccc1)NC(=O)[C@H](CCCN=C(N)N)NC(=O)[C@@H](N)Cc1ccc(O)cc1` (HELM PEPTIDE1{Y.R.F.[Dab].[am]}|PEPTIDE2{Y.R.F}$PEPTIDE1,PEPTIDE2,4:R3-3:R2$$$V2.0): it took a dose of 0.61 mg/kg to reach the 50% effect level in the experiment on Mus musculus [2] (ED50). Further, the figures for the pKi (on Mu-type opioid receptor; in experiment [1]) were 9.29 and 6.30, respectively. The same compound showed a negative-log IC50 (pIC50) in the experiment filed under Cavia porcellus of 7.85.
Take `C[N+](C)(C)CCC[C@H](NC(=O)[C@H](Cc1ccccc1)NC(=O)[C@@H](CCCN=C(N)N)NC(=O)[C@@H](N)Cc1ccc(O)cc1)C(N)=O`: the negative logarithm of the Ki (pKi) on Mu-type opioid receptor was 8.63; in experiment [1] it was 6.35. The negative-log IC50 (pIC50) in the experiment filed under Cavia porcellus is 6.89. Besides, the 50% effect level in the experiment with Mus musculus [3] (ED50) was put at a dose of 2.3 mg/kg.
Regarding `C[N+](C)(C)CC[C@H](NC(=O)[C@H](Cc1ccccc1)NC(=O)[C@H](CCCNC(=N)N)NC(=O)[C@H](Cc1ccc(O)cc1)[N+](C)(C)C)C(N)=O`, the results for the pKi (at Mu-type opioid receptor; in experiment [1]) were 5.89 and less than 4.00, respectively. The negative logarithm of the IC50 (pIC50) in the experiment listed under Cavia porcellus was 5.51.
Take `C[N+](C)(C)CC[C@H](NC(=O)[C@H](Cc1ccccc1)NC(=O)[C@H](CCCN=C(N)N)NC(=O)[C@@H](N)Cc1ccc(O)cc1)C(N)=O`: the pKi at Mu-type opioid receptor is 8.12; in experiment [1] it was 5.23. In addition, in the experiment listed under Cavia porcellus, the negative-log IC50 (pIC50) was 6.90.
On the same counts, the results for `C[N+](C)(C)[C@@H](Cc1ccc(O)cc1)C(=O)N[C@H](CCCN=C(N)N)C(=O)N[C@@H](Cc1ccccc1)C(=O)N[C@@H](CCCCN)C(N)=O` are 6.68, less than 4.00 and 5.61.
With `C[N+](C)(C)CCCC[C@H](NC(=O)[C@H](Cc1ccccc1)NC(=O)[C@@H](CCCNC(=N)N)NC(=O)[C@@H](N)Cc1ccc(O)cc1)C(N)=O`, the results for the pKi (on Mu-type opioid receptor; in experiment [1]) were 8.95 and 5.45, respectively. Also, the pIC50 in the experiment filed under Cavia porcellus is 7.04. The 50% effective dose (ED50) with Mus musculus [4] amounted to 1.18 mg/kg.
On to `NCCCC[C@H](NC(=O)[C@H](Cc1ccccc1)NC(=O)[C@@H](CCCN=C(N)N)NC(=O)[C@@H](N)Cc1ccc(O)cc1)C(N)=O`, for which the negative logarithm of the Ki (pKi) at Mu-type opioid receptor was 9.42; in experiment [1], 5.63. In addition, the pIC50 in the experiment filed under Cavia porcellus was 7.30. In addition, it took a dose of 0.47 mg/kg to reach the 50% effect level in the experiment with Mus musculus [5] (ED50).
